# Results: patent publication US11834678B2, “Hematopoietic stem cells with improved properties” (Yeda Research and Development Co. Ltd., priority 2017, dated 2023)
# Assays:
# [1] = test system: HSPCs; experiment: HSPC levels in bone marrow after 6 days of NAC injections (FACS); type: in vivo; settings: CD74−/− mice; NAC 50 mg/kg i.p. for 6 days; compared to WT levels
# Protocol: FIGS. 8A-L illustrate that CD74 regulates stem cell retention. (FIGS. 8A-C) FACS staining of HSPCs from WT and CD74^−/− mice for Ki-67. Results are represented as: (FIG. 8A) Percentage of Ki-67^+ from CD34^−LSK and percentage of Ki-67^+ from CD34^+ LSK, (FIG. 8B) percentage of CD34−LSK Ki-67− and CD34−LSK Ki-67+ from total BM cells and (FIG. 8C) percentage of CD34^+ LSK Ki-67^− and CD34^+ LSK Ki-67^+ from total BM cells, n=15. (FIGS. 8D-E) Mice were fed with 0.8 mg/ml BrdU in the drinking water for 3 days and BrdU incorporation was analyzed by FACS. Results are represented as: (FIG. 8D) % BrdU^+ in LSK; (FIG. 8E) percentage of LSK BrdU^− and percentage of LSK BrdU^+ from total BM cells, n=12-14. (FIG. 8F-G) FACS staining of HSPCs from WT and CD74^−/− mice for ROS. Results are represented as number of ROS high in million cells, n=9. (FIGS. 8H-I) percentage of HSPCs after 6 days of NAC injections mg/ml, n=5. (FIG. 8J) FACS staining of HSPCs from WT and CD74^−/− mice for Annexin V, n=10-12, and after 24 hours in hypoxia (FIG. 8K), n=4-5. (FIG. 8L) Ratio of Annexin V+CD74^−/− to WT of HSPCs in hypoxia and normoxic conditions. Bars show SEM. Unpaired t-test two tailed *<0.05 **<0.01.
# Electron transfer along the mitochondrial respiration chain induces the formation of ROS (Kobayashi and Suda, 2012). […]
# [2] = test system: HSPC; settings: after a single injection; cited from earlier work
compound,measurement,setting,value
"CC(=O)N[C@@H](CS)C(=O)O [NAC, N-acetyl-L-cystein]",levels of HSPCs,[1],partially reduced
Zymosan,time to mobilization of HSPC,[2],≤ 1 h
